Laboratory results published in patent US4978666A, “Optically active piperazine derivative” (Nippon Chemiphar Co., Ltd., priority 1988, dated 1990).
Counter-ions that a name gives are not always drawn.

Columns and labels:
Format in all cases: in vivo
SD-strain female rats = experiment: Acute toxicity (oral LD50 in rats); details: SD-strain female rats 150 to 200 g, observed for 2 weeks, 20160 min, dihydrochloride
Description: (§1) The peripheral vasodilating effect (action for increase of blood flow of vertebrae) and acute toxicity of (-)-1-(3,4-dimethoxyphenyl)-2-(4-diphenylmethylpiperazinyl)ethanol dihydrochloride according to the invention, (+)-1-(3,4-dimethoxyphenyl)-2-(4-diphenylmethylpiperazinyl)ethanol dihydrochloride, and (±)-1-(3,4-dimethoxyphenyl)-2-(4-diphenylmethylpiperazinyl)ethanol dihydrochloride are illustrated by the following examples.
(§2) Each of the (-)-, (+)- and (±)-piperazine derivatives were orally administered to SD-strain female rats each having a body weight of 150 to 200 g.

vertebral blood flow = experiment: Peripheral vasodilating effect (vertebral blood flow increase in anesthetized dogs); details: i.v., anesthetized mongrel dogs
Description: as §1
Mongrel Dogs of both sexes each weighing about 10 kg were anesthetized with sodium pentobarbital (35 mg/kg, i.v.). Artificial respiration was performed with room air. The vertebral blood flow and femoral blood flow were measured by an electromagnetic flowmeter (avilable from Nihon Koden, MF-27 and MFV-1100) with flow probes. The blood pressure and heart rate were measured at the same time. […]

[1] = Acute toxicity (oral LD50 in rats); details: rat, in vivo, po, SD-strain female rats 150 to 200 g, observed for 2 weeks
Description: as §1, §2

[2] = Concentration in blood after administration to beagle dogs; details: as compared with administration of the (+)-derivative

Structure (SMILES) | LD50 (SD-strain female rats) | Percentage of vertebral blood flow increase (vertebral blood flow; 0.03 mg/kg, dihydrochloride) | Percentage of vertebral blood flow increase (vertebral blood flow; 0.1 mg/kg, dihydrochloride) | LD50 at 336 h [1] | Percentage of vertebral blood flow increase (vertebral blood flow; 0.03 mg/kg) | Percentage of vertebral blood flow increase (vertebral blood flow; 0.1 mg/kg) | concentration in blood (determined from an area of a measured blood concentration curve) [2]
COc1ccc(C(O)CN2CCN(C(c3ccccc3)c3ccccc3)CC2)cc1OC (single isomer, unassigned; (+)) [(+)-Derivative, (+)-1-(3,4-dimethoxyphenyl)-2-(4-diphenylmethylpiperazinyl)ethanol dihydrochloride] | 14.3 mg/kg | 13.4% | 34.3% | – | – | – | –
COc1ccc(C(O)CN2CCN(C(c3ccccc3)c3ccccc3)CC2)cc1OC (racemic) [(±)-Derivative, (±)-1-(3,4-dimethoxyphenyl)-2-(4-diphenylmethylpiperazinyl)ethanol dihydrochloride] | – | – | – | 29.1 mg/kg | 16.9% | 43.9% | –
COc1ccc(C(O)CN2CCN(C(c3ccccc3)c3ccccc3)CC2)cc1OC (single isomer, unassigned; (-)) [(-)-Derivative, (-)-1-(3,4-dimethoxyphenyl)-2-(4-diphenylmethylpiperazinyl)ethanol dihydrochloride] | 45.4 mg/kg | 22.9% | 48.0% | – | – | – | high concentration in blood
